This is an account of results in patent US12441689B2 (EpiVario, Inc., priority 2019, dated 2025).

In the assay the target is human ACSS2 protein (Homo sapiens (Human), UniProt Q9NR19). Description: ACSS2 Cell-Free Activity Assay (Cell-Free IC50). The following applies: 10 nM human ACSS2 protein, 90 minutes at 37 C, pyrophosphatase-coupled, Biomol Green absorbance at 620 nm; read-out: ACSS2 Biochemical IC50. An excerpt: ACSS2 Cell-Free Activity Assay (Cell-Free IC50)
Sequence of human ACSS2 protein (Q9NR19 whole entry): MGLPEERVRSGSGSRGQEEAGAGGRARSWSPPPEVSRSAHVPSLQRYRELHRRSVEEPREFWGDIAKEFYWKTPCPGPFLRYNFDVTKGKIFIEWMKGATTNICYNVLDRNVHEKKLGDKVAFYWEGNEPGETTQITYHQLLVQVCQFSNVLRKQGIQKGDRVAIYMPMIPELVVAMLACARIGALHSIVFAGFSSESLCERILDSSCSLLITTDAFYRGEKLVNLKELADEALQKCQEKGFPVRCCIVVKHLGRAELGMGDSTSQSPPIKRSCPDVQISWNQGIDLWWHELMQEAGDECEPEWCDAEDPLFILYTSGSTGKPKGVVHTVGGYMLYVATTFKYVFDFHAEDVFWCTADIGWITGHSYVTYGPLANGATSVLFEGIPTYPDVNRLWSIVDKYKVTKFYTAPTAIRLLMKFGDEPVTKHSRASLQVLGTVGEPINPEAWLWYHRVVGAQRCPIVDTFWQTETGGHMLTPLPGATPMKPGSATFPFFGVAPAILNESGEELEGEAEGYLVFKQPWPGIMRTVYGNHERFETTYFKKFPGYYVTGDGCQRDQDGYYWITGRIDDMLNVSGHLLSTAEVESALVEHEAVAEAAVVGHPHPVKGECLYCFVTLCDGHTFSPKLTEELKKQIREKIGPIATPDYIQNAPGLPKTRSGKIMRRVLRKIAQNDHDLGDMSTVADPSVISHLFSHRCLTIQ
For the molecule `Cc1nn(-c2ccc(OC(F)F)c(-c3cccnc3)c2)c(OC(=O)N2CCC(N3CCCCC3)CC2)c1C(=O)Nc1cccc(C(C)(F)F)c1` [Compound 190, 4-((3-(1,1-difluoroethyl)phenyl)carbamoyl)-1-(4-(difluoromethoxy)-3-(pyridin-3-yl)phenyl)-3-methyl-1H-pyrazol-5-yl [1,4′-bipiperidine]-1′-carboxylate], the IC50 (commonly the midpoint of a concentration-inhibition curve) is 1 to 100 nM.

As to `Cc1nn(-c2ccc(OC(F)F)cc2)c(OC(=O)N2CCN(CCO)CC2)c1C(=O)Nc1cccc(C(C)(F)F)c1` [Compound 191, 4-((3-(1,1-difluoroethyl)phenyl)carbamoyl)-1-(4-(difluoromethoxy)phenyl)-3-methyl-1H-pyrazol-5-yl 4-(2-hydroxyethyl)piperazine-1-carboxylate], the half-inhibitory concentration (IC50) is 1 to 100 nM.

For the molecule `Cc1nn(-c2ccc(OC(F)F)cc2)c(C(F)(F)F)c1C(=O)Nc1cccc(C(C)(F)F)c1` [Compound 192, N-(3-(1,1-difluoroethyl)phenyl)-1-(4-(difluoromethoxy)phenyl)-3-methyl-5-(trifluoromethyl)-1H-pyrazole-4-carboxamide], the half-maximal inhibitory concentration (IC50) is 1 to 100 nM.

Take `CC(=O)c1c(C(=O)Nc2cccc(C(C)(F)F)c2)c(C)nn1-c1ccc(OC(F)F)cc1` [Compound 193, 5-acetyl-N-(3-(1,1-difluoroethyl)phenyl)-1-(4-(difluoromethoxy)phenyl)-3-methyl-1H-pyrazole-4-carboxamide]: the IC50 was greater than 100 nM.

On to `Cc1nn(-c2ccc(OC(F)F)cc2)c(CO)c1C(=O)Nc1cccc(C(C)(F)F)c1` [Compound 194, N-[3-(1,1-difluoroethyl)phenyl]-1-[4-(difluoromethoxy)phenyl]-5-(hydroxymethyl)-3-methyl-pyrazole-4-carboxamide], for which the IC50 lay within 1 to 100 nM.

Regarding `Cc1nn(-c2ccc(OC(F)F)cc2)cc1C(=O)Nc1cccc(C(C)(F)F)c1` [Compound 196, N-(3-(1,1-difluoroethyl)phenyl)-1-(4-(difluoromethoxy)phenyl)-3-methyl-1H-pyrazole-4-carboxamide], the half-inhibitory concentration (IC50) lay within 1 to 100 nM.

With `CC(F)(F)c1cccc(NC(=O)C2C(=O)N(c3ccc(OC(F)F)cc3)N=C2CS)c1` (stereo not shown) [Compound 197], the IC50 was greater than 100 nM.

Consider `CC1=NN(c2ccc(OC(F)F)cc2)C(=O)C1(C)NC(=O)c1cccc(C(C)(F)F)c1` (stereo not shown) [Compound 198, 3-(1,1-difluoroethyl)-N-(1-(4-(difluoromethoxy)phenyl)-3,4-dimethyl-5-oxo-4,5-dihydro-1H-pyrazol-4-yl)benzamide], for which the IC50 is greater than 100 nM.

In the case of `COc1c(C(=O)Nc2cccc(C(C)(F)F)c2)c(C)nn1-c1ccc(OC(F)F)cc1` [Compound 199, N-(3-(1,1-difluoroethyl)phenyl)-1-(4-(difluoromethoxy)phenyl)-5-methoxy-3-methyl-1H-pyrazole-4-carboxamide], the IC50 fell in the range of 1 to 100 nM.

Take `Cc1nn(-c2ccc(OC(F)F)cc2)c(F)c1C(=O)Nc1cccc(C(C)(F)F)c1` [Compound 200, N-(3-(1,1-difluoroethyl)phenyl)-1-(4-(difluoromethoxy)phenyl)-5-fluoro-3-methyl-1H-pyrazole-4-carboxamide]: the IC50 is greater than 100 nM.

For `CCOc1c(C(=O)Nc2cccc(C(C)(F)F)c2)c(C)nn1-c1ccc(OC(F)F)cc1` [Compound 201, N-(3-(1,1-difluoroethyl)phenyl)-1-(4-(difluoromethoxy)phenyl)-5-ethoxy-3-methyl-1H-pyrazole-4-carboxamide], the IC50 was greater than 100 nM.

For `COc1ccc(N2N=C(C)C(Cl)(C(=O)Nc3cccc(C(C)(F)F)c3)C2=O)cc1` (stereo not shown) [Compound 202, 4-chloro-N-(3-(1,1-difluoroethyl)phenyl)-1-(4-methoxyphenyl)-3-methyl-5-oxo-4,5-dihydro-1H-pyrazole-4-carboxamide], the IC50 lay in the range of 1 to 100 nM.

In the case of `CC1=NN(c2ccc(OC(F)(F)F)cc2)C(=O)C1(F)C(=O)Nc1cccc(C(C)(F)F)c1` (stereo not shown) [Compound 203, N-(3-(1,1-difluoroethyl)phenyl)-4-fluoro-3-methyl-5-oxo-1-(4-(trifluoromethoxy)phenyl)-4,5-dihydro-1H-pyrazole-4-carboxamide], the 50% inhibitory concentration (IC50) was greater than 100 nM.

Turning to `CC1=NN(c2ccc(OC(F)F)c(-c3ccncc3)c2)C(=O)C1(F)C(=O)Nc1cccc(C(C)(F)F)c1` (stereo not shown) [Compound 204, N-(3-(1,1-difluoroethyl)phenyl)-1-(4-(difluoromethoxy)-3-(pyridin-4-yl)phenyl)-4-fluoro-3-methyl-5-oxo-4,5-dihydro-1H-pyrazole-4-carboxamide], the IC50 is less than 1 nM.

Take `CC1=NN(c2ccc(OC(F)F)cc2)C(=O)C1(F)C(=O)Nc1cccc(C(C)(F)F)c1` (stereo not shown) [Compound 205, N-(3-(1,1-difluoroethyl)phenyl)-1-(4-(difluoromethoxy)phenyl)-4-fluoro-3-methyl-5-oxo-4,5-dihydro-1H-pyrazole-4-carboxamide]: the IC50 was less than 1 nM.

As for `CC1=NN(c2ccc(OC(F)F)c(-c3cccnc3)c2)C(=O)C1(F)C(=O)Nc1cccc(C(C)(F)F)c1` (stereo not shown) [Compound 206, N-(3-(1,1-difluoroethyl)phenyl)-1-(4-(difluoromethoxy)-3-(pyridin-3-yl)phenyl)-4-fluoro-3-methyl-5-oxo-4,5-dihydro-1H-pyrazole-4-carboxamide], the IC50 is less than 1 nM.

In the case of `CCC(C)Oc1ccc(N2N=C(C)C(F)(C(=O)Nc3cccc(C(C)(F)F)c3)C2=O)cc1` (stereo not shown) [Compound 207, N-[3-(1,1-difluoroethyl)phenyl]-4-fluoro-3-methyl-5-oxo-1-(4-sec-butoxyphenyl)pyrazole-4-carboxamide], the IC50 was less than 1 nM.

As for `CC1=NN(c2ccc(OC(C)C)cc2)C(=O)C1(F)C(=O)Nc1cccc(C(C)(F)F)c1` (stereo not shown) [Compound 208, N-(3-(1,1-difluoroethyl)phenyl)-4-fluoro-1-(4-isopropoxyphenyl)-3-methyl-5-oxo-4,5-dihydro-1H-pyrazole-4-carboxamide], the IC50 is less than 1 nM.

Take `COc1ccc(N2N=C(C)C(F)(C(=O)Nc3cccc(C(C)(F)F)c3)C2=O)cc1` (stereo not shown) [Compound 209, N-(3-(1,1-difluoroethyl)phenyl)-4-fluoro-1-(4-methoxyphenyl)-3-methyl-5-oxo-4,5-dihydro-1H-pyrazole-4-carboxamide]: the IC50 was less than 1 nM.

Regarding `Cc1nc(-c2ccc(OC(F)F)c(-c3ccccn3)c2)oc1C(=O)Nc1cccc(C(C)(F)F)c1` [Compound 213, N-(3-(1,1-difluoroethyl)phenyl)-2-(4-(difluoromethoxy)-3-(pyridin-2-yl)phenyl)-4-methyloxazole-5-carboxamide], the IC50 is greater than 100 nM.

For `CCC(F)(F)c1cccc(NC(=O)c2oc(-c3ccc(OC(F)F)c(-c4ccccn4)c3)nc2C)c1` [Compound 214, 2-(4-(difluoromethoxy)-3-(pyridin-2-yl)phenyl)-N-(3-(1,1-difluoropropyl)phenyl)-4-methyloxazole-5-carboxamide], the IC50 is greater than 100 nM.

`CCC(F)(F)c1cccc(NC(=O)c2nc(-c3ccc(OC(F)F)cc3)[nH]c2C)c1` [Compound 215, 2-(4-(difluoromethoxy)phenyl)-N-(3-(1,1-difluoropropyl)phenyl)-5-methyl-1H-imidazole-4-carboxamide]: the IC50 is greater than 100 nM.

With `CCC(F)(F)c1cccc(NC(=O)c2cc(-c3ccc(OC(F)F)cc3)[nH]c2C)c1` [Compound 216, 5-[4-(difluoromethoxy)phenyl]-N-[3-(1,1-difluoropropyl)phenyl]-2-methyl-1H-pyrrole-3-carboxamide], the IC50 is greater than 100 nM.

Take `CCC(F)(F)c1cccc(NC(=O)c2cc(-c3ccc(OC(F)F)c(-c4ccccc4)c3)[nH]c2C)c1` [Compound 217, 5-[4-(difluoromethoxy)-3-phenyl-phenyl]-N-[3-(1,1-difluoropropyl)phenyl]-2-methyl-1H-pyrrole-3-carboxamide]: the IC50 is greater than 100 nM.

Regarding `CCC(F)(F)c1cccc(NC(=O)c2nc(-c3ccc(OC(F)F)c(-c4ccccc4)c3)[nH]c2C)c1` [Compound 218, 2-(6-(difluoromethoxy)-[1,1′-biphenyl]-3-yl)-N-(3-(1,1-difluoropropyl)phenyl)-5-methyl-1 H-imidazole-4-carboxamide], the IC50 was greater than 100 nM.

On to `Cc1cc(-c2ccccc2)cc(-c2nc(C)cc(C(=O)Nc3cccc(C(C)(F)F)c3)n2)c1` [Compound 219, N-(3-(1,1-difluoroethyl)phenyl)-6-methyl-2-(5-methyl-[1,1’-biphenyl]-3-yl)pyrimidine-4-carboxamide], for which the IC50 is greater than 100 nM.

Regarding `Cc1oc(-c2ccc(OC(F)F)c(-c3cccnc3)c2)nc1C(=O)Nc1cccc(C(C)(F)F)c1` [Compound 220, N-(3-(1,1-difluoroethyl)phenyl)-2-(4-(difluoromethoxy)-3-(pyridin-3-yl)phenyl)-5-methyloxazole-4-carboxamide], the IC50 was greater than 100 nM.

Turning to `CCC(F)(F)c1cccc(NC(=O)c2nc(-c3ccc(OC(F)F)c(-c4cccnc4)c3)oc2C)c1` [Compound 221, 2-(4-(difluoromethoxy)-3-(pyridin-3-yl)phenyl)-N-(3-(1,1-difluoropropyl)phenyl)-5-methyloxazole-4-carboxamide], the IC50 is greater than 100 nM.

As for `CCC(F)(F)c1cccc(NC(=O)c2cc(-c3ccc(OC(F)F)cn3)[nH]c2C)c1` [Compound 222, 5-(5-(difluoromethoxy)pyridin-2-yl)-N-(3-(1,1-difluoropropyl)phenyl)-2-methyl-1H-pyrrole-3-carboxamide], the IC50 was greater than 100 nM.

In the case of `CCC(F)(F)c1cccc(NC(=O)c2cc(-c3ccc(OC(F)F)c(-c4ccccc4)n3)[nH]c2C)c1` [Compound 223, 5-(5-(difluoromethoxy)-6-phenylpyridin-2-yl)-N-(3-(1,1-difluoropropyl)phenyl)-2-methyl-1H-pyrrole-3-carboxamide], the IC50 is greater than 100 nM.

For `COc1c(Cc2ccc(Cl)cc2)cc(N2N=C(C)C(C(=O)Nc3cccc(C(C)(F)F)c3)C2=O)cc1-c1ccccc1` (stereo not shown) [Compound 224, 1-(5-(4-chlorobenzyl)-6-methoxy-[1,1’-biphenyl]-3-yl)-N-(3-(1,1-difluoroethyl)phenyl)-3-methyl-5-oxo-4,5-dihydro-1H-pyrazole-4-carboxamide], the IC50 was in the range of 1 to 100 nM.
